Source: patent US8017792B2, “1-thio-D-glucitol derivatives” (Taisho Pharmaceutical Co., Ltd., priority 2005, dated 2011)

Columns and labels:
[1] = molecular target: T1, Human SGLT2 (Homo sapiens, UniProt P31639); assay: Sodium-dependent sugar uptake inhibition test in CHO-K1 cells stably expressing human SGLT2 (Test Example 2); type: cell-based; conditions: for IC50: CHO-K1 cells, [14C]methyl-α-D-glucopyranoside 1 mM, 37° C., one hour; for SGLT1/SGLT2: ratio of IC50 human SGLT1 to IC50 human SGLT2
T1 construct: expressed in transfected cells; host or cells: CHO-K1
T1 sequence (P31639 1-672): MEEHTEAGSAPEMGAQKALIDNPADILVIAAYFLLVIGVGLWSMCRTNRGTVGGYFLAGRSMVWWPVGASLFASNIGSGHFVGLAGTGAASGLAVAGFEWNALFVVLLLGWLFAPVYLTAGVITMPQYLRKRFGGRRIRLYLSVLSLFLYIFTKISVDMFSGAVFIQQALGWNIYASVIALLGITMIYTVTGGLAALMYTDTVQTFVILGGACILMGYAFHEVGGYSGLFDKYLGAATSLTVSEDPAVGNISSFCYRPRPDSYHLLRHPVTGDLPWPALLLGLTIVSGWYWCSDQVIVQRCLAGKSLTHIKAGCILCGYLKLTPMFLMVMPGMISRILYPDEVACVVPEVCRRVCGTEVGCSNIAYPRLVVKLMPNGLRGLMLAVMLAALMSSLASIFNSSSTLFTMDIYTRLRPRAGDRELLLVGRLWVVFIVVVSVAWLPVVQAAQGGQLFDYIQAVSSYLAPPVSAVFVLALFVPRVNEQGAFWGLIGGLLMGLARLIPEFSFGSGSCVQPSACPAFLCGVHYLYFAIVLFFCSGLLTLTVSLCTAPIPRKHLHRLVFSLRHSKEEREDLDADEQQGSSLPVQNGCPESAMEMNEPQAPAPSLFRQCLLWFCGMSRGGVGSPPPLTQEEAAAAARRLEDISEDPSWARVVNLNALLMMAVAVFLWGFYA
Procedure: (§1) Human SGLT1 sequence (NM_000343) was reverse-transcripted from human small intestinal mRNA, then amplified, and then introduced into pCMV-tag5A from Stratagene Corporation. Human SGLT2 sequence (NM_003041) was prepared from human nephric mRNA as with the above method, and then introduced into pcDNA3.1+hygro from Invitrogen Corporation. Each cloned sequence was confirmed to be identical with the reported sequence.
(§2) CHO-K1 cells were transfected with the human SGLT1 and human SGLT2 expression vectors using Lipofectamine 2000 (Invitrogen Corporation). SGLT expression cells were cultured in the presence of geneticin (SGLT1) or hygromycin B (SGLT2) of the concentration of 500 μg/mL to select resistant strains. Cells were obtained using sugar uptake specific activity as an index in the following system.
(§3) Cells stably expressing human SGLT1 and human SGLT2 were used in the sodium-dependent sugar uptake activity inhibition test. Cells were incubated in 1 mL of a pretreatment buffer solution (140 mM choline chloride, 2 mM KCl, 1 mM CaCl2, 1 mM MgCl2, 10 mM HEPES/5 mM Tris, pH 7.4) for 20 minutes. The pretreatment buffer solution was removed and 200 μL of an uptake buffer containing test compounds (methyl-α-D-glucopyranoside containing [^14C]methyl-α-D-glucopyranoside (0.1 mM for SGLT1 inhibition, 1 mM for SGLT2 inhibition), 140 mM NaCl, 2 mM KCl, 1 mM CaCl2, 1 mM MgCl2, 10 mM HEPES/5 mM Tris, pH 7.4) were added, and uptake reaction was performed at 37° C. for 30 minutes (SGLT1) or for one hour (SGLT2). After the reaction, cells were washed with 1 mL of a washing buffer (10 mM methyl-α-D-glucopyranoside, 140 mM choline chloride, 2 mM KCl, 1 mM CaCl2, 1 mM MgCl2, 10 mM HEPES/5 mM Tris, pH 7.4) twice and dissolved in 400 μL of 0.2 M NaOH solution. After Aquazole 2 (Perkin Elmer Corporation) was added and mixed well, radioactivity was measured with a liquid scintillation counter (Beckman Coulter Corporation). A buffer for uptake which contained no test compound was prepared as a control group. Another buffer solution for uptake containing choline chloride in place of NaCl was also prepared for basic uptake.

[2] = tested on: rat kidney brush border membrane vesicles (BBMV); assay: Glucose uptake inhibition in rat kidney brush border membrane vesicles (Test Example 1); type: biochemical; conditions: D-[6-3H]glucose 0.1 mM, 37° C., five seconds, read-out: IC50 (concentration at which glucose uptake was inhibited by 50%)
Procedure: After 50 μL of a suspension (protein concentration: 4 mg/mL) of rat kidney brush border membrane vesicles (brush border membrane […]: BBMV) prepared following the method described in a document (Anal. Biochem., Vol. 201, Clause 301, 1984) was preincubated at 37° C. for two minutes, 150 μL of a reaction mixture which was a mixture of a test compound dissolved in DMSO (DMSO final concentration: 1%), 100 mM mannitol, 100 mM NaSCN or KSCN, 10 mM HEPES/Tris pH 7.4, D-glucose (final concentration: 0.1 mM) and 1 μCi of D-[6-^3H] glucose (Amersham) was added to this. After performing a reaction at 37° C. for five seconds, 1 mL of an ice cooled reaction terminating solution (150 mM NaCl, 10 mM HEPES/Tris pH 7.4, 0.3 mM phlorizin) was added to the reaction mixture to terminate the reaction, and BBMV was immediately separated by rapid filtration using a membrane filter (HAWP02500 having a pore size of 0.45 μm, Millipore). The membrane filter was washed three times with 4.5 mL of the ice cooled reaction terminating solution. After the membrane was dried sufficiently, radioactivity was measured with a liquid scintillation counter (Beckman) to quantify the amount of glucose taken in BBMV on the membrane filter.

[3] = molecular target: T2, Human SGLT1 (Homo sapiens, UniProt P13866); assay: Sodium-dependent sugar uptake inhibition test in CHO-K1 cells stably expressing human SGLT1 (Test Example 2); type: cell-based; conditions: [14C]methyl-α-D-glucopyranoside 0.1 mM, 37° C., 30 minutes
T2 construct: expressed in transfected cells; host or cells: CHO-K1
T2 sequence (P13866 1-664): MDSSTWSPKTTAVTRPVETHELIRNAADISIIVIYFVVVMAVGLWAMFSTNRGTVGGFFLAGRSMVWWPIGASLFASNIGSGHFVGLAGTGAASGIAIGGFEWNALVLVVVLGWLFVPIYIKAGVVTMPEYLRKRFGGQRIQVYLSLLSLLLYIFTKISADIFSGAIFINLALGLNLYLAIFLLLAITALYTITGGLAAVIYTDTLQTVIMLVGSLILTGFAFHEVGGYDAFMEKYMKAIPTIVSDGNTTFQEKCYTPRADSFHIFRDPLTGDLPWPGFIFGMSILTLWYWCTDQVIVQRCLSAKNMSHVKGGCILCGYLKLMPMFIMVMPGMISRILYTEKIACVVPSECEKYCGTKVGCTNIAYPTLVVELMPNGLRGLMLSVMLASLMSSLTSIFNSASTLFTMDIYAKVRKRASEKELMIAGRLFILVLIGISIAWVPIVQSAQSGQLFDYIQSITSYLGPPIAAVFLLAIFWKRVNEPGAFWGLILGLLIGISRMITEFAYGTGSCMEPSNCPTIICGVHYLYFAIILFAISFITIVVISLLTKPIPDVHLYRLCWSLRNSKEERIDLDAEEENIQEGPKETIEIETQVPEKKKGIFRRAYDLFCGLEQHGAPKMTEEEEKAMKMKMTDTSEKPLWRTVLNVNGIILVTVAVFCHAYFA
Procedure: as §1, §2, §3

CCOc1ccc(Cc2cccc([C@@H]3S[C@H](CO)[C@@H](O)[C@H](O)[C@H]3O)c2)cc1 [Compound 75, (1S)-1,5-Anhydro-1-[3-(4-ethoxybenzyl)phenyl]-1-thio-D-glucitol]
IC50 [1]: 2.83 µM
SGLT1/SGLT2 [1]: 9.7
IC50 [2]: 1.6 µM
IC50 [3]: 27.4 µM

CCOc1ccc(Cc2ccc(O)c([C@@H]3S[C@H](CO)[C@@H](O)[C@H](O)[C@H]3O)c2)cc1 [Compound 79, (1S)-1,5-Anhydro-1-[3-(4-ethoxybenzyl)-6-hydroxyphenyl]-1-thio-D-glucitol]
IC50 [1]: 0.37 µM
SGLT1/SGLT2 [1]: 7.2
IC50 [2]: 0.22 µM
IC50 [3]: 2.7 µM

COc1ccc([C@@H]2S[C@H](CO)[C@@H](O)[C@H](O)[C@H]2O)cc1Cc1cc2ccccc2s1 [Compound 127, (1S)-1,5-Anhydro-1-[3-[(1-benzothien-2-yl)methyl]-4-methoxyphenyl]-1-thio-D-glucitol]
IC50 [1]: 1.12 µM
SGLT1/SGLT2 [1]: 0.6
IC50 [2]: 0.35 µM
melting point: 91 to 105 °C
IC50 [3]: 0.7 µM

CCOc1ccc(Cc2cc([C@@H]3S[C@H](CO)[C@@H](O)[C@H](O)[C@H]3O)ccc2Cl)cc1 [Compound 76, (1S)-1,5-Anhydro-1-[4-chloro-3-(4-ethoxybenzyl)phenyl]-1-thio-D-glucitol]
IC50 [1]: 0.08 µM
SGLT1/SGLT2 [1]: 14.6
IC50 [2]: 0.32 µM

OC[C@H]1S[C@@H](c2ccc(Cl)c(Cc3cc4ccccc4s3)c2)[C@H](O)[C@@H](O)[C@@H]1O [Compound 128, (1S)-1,5-Anhydro-1-[3-[(1-benzothien-2-yl)methyl]-4-chlorophenyl]-1-thio-D-glucitol]
IC50 [1]: 0.14 µM
SGLT1/SGLT2 [1]: 4.4
IC50 [2]: 0.79 µM
melting point: 105 to 115 °C
IC50 [3]: 0.6 µM
